Here are results for 28 molecules from patent US20260071117A1, “FUNABLE FLUORESCENT COMPOUNDS AND USES THEREOF” (Arizona Board of Regents on Behalf of the University of …, priority 2021, published 2026).

The nature of this data set: Absorbance and fluorescence measurements (excitation maximum, emission maximum, quantum yield vs coumarin 151). The arrangement: key to Quantum Yield: fraction relative to coumarin 151 in ethanol standard. Type of data set: physicochemical. To be noted: for λex: absorbance/excitation maximum; for λem: emission maximum. The source says: All reagents and solvents were acquired from commercially available suppliers and used without further purification. Methanol(dried on molecular sieves-Acroseal) was obtained from Acros. […] 1H and 13C NMR spectra were obtained on a Bruker NMR spectrometer at 500/400 and 125/100 MHz respectively. The data is reported as follows: chemical shift in ppm (δ), multiplicity (s=singlet, d=doublet, dd=doublet of doublets, t=triplet, dt=doublet of triplets, td=triplet of doublets, q=quartet, p=pentet, m=multiplet). Coupling constants are reported in Hertz (Hz) and were automatically generated using known NMR analyzer software (MestReNova), these were then subsequently curated. High-resolution mass spectra were obtained using the positive ESI method for all the compounds, obtained in an Ion Cyclotron Resonance (ICR) spectrometer. Absorbance spectra were obtained using an Agilent 8453 UV-visible spectroscopy system. Fluorescence was measured on a Varian (Agilent) Cary Eclipse Fluorimeter. Quantum yield measurements were calculated and reported using coumarin 151 in ethanol as a standard.^1 Fluorescence scans were obtained using a 2.5 mm slit width unless otherwise noted.
The fluorescence was also measured in different solvents to examine the solvent effects.

Where [1] appears, read: coumarin 151 in ethanol as standard, 2.5 mm slit width, measurements run with methanol.
Where [2] appears, read: 2.5 mm slit width, measurements run with methanol.
Where [3] appears, read: 10 mm slit, coumarin 151 in ethanol as standard.

Turning to `Nc1c(-c2cccc(Oc3ccccc3)c2)nc2ccccn12` [Compound 10n, 2-(3-phenoxyphenyl)imidazo[1,2-a]pyridin-3-amine], where the note is “measurements run with methanol”, the λex was found to be 339 nm. Under setting [1], the “Quantum Yield” value came out at 0.40. The same molecule displayed a λem under setting [2] of 474 nm.

Consider `COc1cc(OC)c2c(-c3ccccc3)nc3c(nc4ccccn43)c2c1` [Compound 18a, 2,4-dimethoxy-5-phenylpyrido[2′,1′:2,3]imidazo[4,5-c]isoquinoline], for which the “fluorescence (observation in words)” value is given as “not observable by the naked eye”. For the same molecule, the λex (measurements run with methanol) is given as 365 nm. Moreover, the “Quantum Yield” value under setting [1] is given as 0.01. Besides, under setting [2], the λem is recorded as 422 nm. Moreover, the Quantum Yield (tetracyclic indolizines of Example I) was 0.01.

`COc1cc(OC)cc(-c2nc3cnccn3c2N)c1` [Compound 10s, 2-(3,5-dimethoxyphenyl)imidazo[1,2-a]pyrazin-3-amine] came in with a λex (measurements run with methanol) of 382 nm. The “Quantum Yield” value under setting [1] was determined as 0.35. Under setting [2], this molecule yielded a λem of 477 nm.

As for `Cc1nn2c(/N=C/c3ccc4ccccc4c3)c(-c3ccc4ccccc4c3)nc2nc1/C=C/c1ccc2ccccc2c1` [Compound 59, (E)-N-(2-methyl-6-(naphthalen-2-yl)-3-((E)-2-(naphthalen-2-yl)vinyl)imidazo[1,2-b][1,2,4]triazin-7-yl)-1-(naphthalen-2-yl)methanimine], the λex (measurements run with methanol) is on record as 526 nm. In addition, under setting [1], the “Quantum Yield” value was determined as 0.04. Under setting [2], the λem worked out at 601 nm.

As to `COc1cc(-c2nc3cc([N+](=O)[O-])ccn3c2N)cc(OC)c1OC` [Compound 10az, 7-nitro-2-(3,4,5-trimethoxyphenyl)imidazo[1,2-a]pyridin-3-amine], under setting [3], the “Quantum Yield” value is on record as 0.11. For the same molecule, for the setting “measurements run with methanol”, the λex worked out at 485 nm. For the same molecule, the λem (10 mm slit width) worked out at 651 nm.

With `COC(=O)c1ccn2c(N)c(-c3ccc(OC)cc3OC)nc2c1` [Compound 10am, methyl 3-amino-2-(2,4-dimethoxyphenyl)imidazo[1,2-a]pyridine-7-carboxylate], the λex (measurements run with methanol) is reported as 402 nm. The “Quantum Yield” value under setting [1] is given as 0.49. The molecule further came in with a λem under setting [2] of 519 nm.

With `COC(=O)c1ccn2c(c1)nc1c3cc(OC)cc(OC)c3c(/C=C/c3ccccc3)nc12` [Compound 18c, methyl (E)-2,4-dimethoxy-5-styrylpyrido[2′,1′:2,3]imidazo[4,5-c]isoquinoline-10-carboxylate], the λex (measurements run with methanol) is 325 nm. The “Quantum Yield” value under setting [1] is reported as 0.19. This molecule also had a λem under setting [2] of 510 nm.

`COc1ccc(-c2nc3ccc(N4CCCCC4)cn3c2N)cc1` [Compound 10as, 2-(4-methoxyphenyl)-6-(piperidin-1-yl)imidazo[1,2-a]pyridin-3-amine]: the λex (measurements run with methanol) is listed as 341 nm. For the same molecule, the “Quantum Yield” value under setting [1] turned out to be 0.07. The same molecule showed a λem under setting [2] of 479 nm.

In turn, `COc1cc(-c2nc3ccccn3c2N)cc(OC)c1OC` [Compound 10c, 2-(3,4,5-trimethoxyphenyl)imidazo[1,2-a]pyridin-3-amine] yielded a λex (measurements run with methanol) of 343 nm. Also, under setting [1], the “Quantum Yield” value amounted to 0.38. Moreover, under setting [2], the λem came to 472 nm.

The molecule `CCN(CC)c1ccc(-c2nc3cc(C(=O)OC)ccn3c2N)cc1` [Compound 10ao, methyl 3-amino-2-(4-(diethylamino)phenyl)imidazo[1,2-a]pyridine-7-carboxylate] showed a λex (measurements run with methanol) of 432 nm. Moreover, under setting [1], the “Quantum Yield” value worked out at 0.25. Moreover, the λem under setting [2] is 540 nm.

With `COc1cccc(-c2nc3ccccn3c2N)c1OC` [Compound 10b, 2-(2,3-dimethoxyphenyl)imidazo[1,2-a]pyridin-3-amine], the λex (measurements run with methanol) is 341 nm. Further, under setting [1], the “Quantum Yield” value was 0.40. Also, the λem under setting [2] was 471 nm.

As to `COc1ccc(-c2nc3ccccn3c2N)cc1` [Compound 10g, 2-(4-methoxyphenyl)imidazo[1,2-a]pyridin-3-amine], the λex (measurements run with methanol) was determined as 340 nm. In addition, the “Quantum Yield” value under setting [1] was 0.39. Under setting [2], this molecule returned a λem of 472 nm.

Consider `COc1ccc(/C=C/c2nc3nc(-c4ccc(OC)cc4)c(NCc4ccccc4)n3nc2C)cc1` [Compound 76, (E)-N-benzyl-6-(4-methoxyphenyl)-3-(4-methoxystyryl)-2-methylimidazo[1,2-b][1,2,4]triazin-7-amine], for which the λex (measurements run with methanol) is reported as 499 nm. Under setting [1], the “Quantum Yield” value is 0.24. The molecule further gave a λem under setting [2] of 639 nm.

As to `COc1cc(-c2nc3c(nc4cccnn43)c3cc(OC)c(OC)c(OC)c23)cc(OC)c1OC` [Compound 16f, 2,3,4-trimethoxy-5-(3,4,5-trimethoxyphenyl)pyridazino[6′,1′:2,3]imidazo[4,5-c]isoquinoline], under “measurements run with methanol”, the λex amounted to 295 nm. In addition, the “Quantum Yield” value under setting [1] turned out to be 0.07. Besides, under setting [2], the λem amounted to 488 nm.

`COC(=O)c1ccn2c(N)c(-c3ccccc3)nc2c1` [Compound 10ah, methyl 3-amino-2-phenylimidazo[1,2-a]pyridine-7-carboxylate]: the λex (measurements run with methanol) was found to be 394 nm. The “Quantum Yield” value under setting [1] was 0.40. In addition, under setting [2], the λem worked out at 510 nm.

As for `CCN(CC)c1ccc(-c2nc3cc([N+](=O)[O-])ccn3c2N)cc1` [Compound 10ba, 2-(4-(diethylamino)phenyl)-7-nitroimidazo[1,2-a]pyridin-3-amine], the “fluorescence (observation in words)” value is reported as “fluorescence intensity is low”. Also, under setting [3], the “Quantum Yield” value came out at 0.09. This molecule had a λex (measurements run with methanol) of 550 nm. Besides, the λem (10 mm slit width) turned out to be 720 nm.

For `Nc1c(-c2ccccn2)nc2ccccn12` [Compound 10h, 2-(pyridin-2-yl)imidazo[1,2-a]pyridin-3-amine], the λex (measurements run with methanol) came to 370 nm.

As to `COc1ccc(-c2nc3cccnn3c2N)cc1` [Compound 10ac, 2-(4-methoxyphenyl)imidazo[1,2-b]pyridazin-3-amine], the λex (measurements run with methanol) was determined as 435 nm. Besides, the “Quantum Yield” value under setting [1] was found to be 0.03. In addition, under setting [2], the λem is recorded as 543 nm.

The molecule `CCN(CC)c1ccc(-c2nc3ccccn3c2N)cc1` [Compound 10q, 2-(4-(diethylamino)phenyl)imidazo[1,2-a]pyridin-3-amine] displayed a λex (measurements run with methanol) of 341 nm. Moreover, the “Quantum Yield” value under setting [1] worked out at 0.12. Under setting [2], this molecule showed a λem of 486 nm.

The molecule `COc1ccc(/C=C/c2nc3nc(-c4ccc(OC)cc4)c(NC(C)(C)C)n3nc2C)cc1` [Compound 44, (E)-N-(tert-butyl)-6-(4-methoxyphenyl)-3-(4-methoxystyryl)-2-methylimidazo[1,2-b][1,2,4]triazin-7-amine] registered a λex (measurements run with methanol) of 486 nm. For the same molecule, the “Quantum Yield” value under setting [1] was determined as 0.27. This molecule yielded a λem under setting [2] of 643 nm.

Where the note is “measurements run with methanol”, `COc1cc(-c2nc3cccnn3c2N)cc(OC)c1OC` [Compound 10ad, 2-(3,4,5-trimethoxyphenyl)imidazo[1,2-b]pyridazin-3-amine] had a λex of 429 nm. Also, the “Quantum Yield” value under setting [1] was found to be 0.03. Further, the λem under setting [2] is recorded as 541 nm.

As to `Nc1c(-c2ccccc2)nc2ccccn12` [Compound 10f, 2-phenylimidazo[1,2-a]pyridin-3-amine], the λex (measurements run with methanol) was found to be 339 nm. Further, under setting [1], the “Quantum Yield” value came to 0.30. The λem under setting [2] is given as 473 nm.

Under “measurements run with methanol”, `COc1ccc(-c2nc3ccc(-c4ccccc4)cn3c2N)cc1` [Compound 10ar, 2-(4-methoxyphenyl)-6-phenylimidazo[1,2-a]pyridin-3-amine] displayed a λex of 350 nm. Besides, under setting [1], the “Quantum Yield” value turned out to be 0.09. The λem under setting [2] turned out to be 510 nm.

Turning to `COc1cc(/C=C/c2nc3nc(-c4cc(OC)cc(OC)c4)c(NC(C)(C)C)n3nc2C)cc(OC)c1` [Compound 46, (E)-N-(tert-butyl)-6-(3,5-dimethoxyphenyl)-3-(3,5-dimethoxystyryl)-2-methylimidazo[1,2-b][1,2,4]triazin-7-amine], the λex (measurements run with methanol) was 461 nm. Under setting [1], the “Quantum Yield” value is reported as 0.19. Further, under setting [2], the λem worked out at 638 nm.

Molecule `COc1cc(-c2nc3c(nc4ncccn43)c3cc(OC)c(OC)c(OC)c23)cc(OC)c1OC` [Compound 16g, 2,3,4-trimethoxy-5-(3,4,5-trimethoxyphenyl)pyrimido[2′,1′:2,3]imidazo[4,5-c]isoquinoline] had a λex (measurements run with methanol) of 296 nm. Under setting [1], the “Quantum Yield” value is reported as 0.07. In addition, the λem under setting [2] stood at 510 nm.

Take “(E)-2,3,4-trimethoxy-9-methyl-5-(3,4,5-trimethoxyphenyl)-10-(3,4,5-trimethoxystyryl)-[1,2,4]triazino[3′, 2′: 2,3]imidazo[4,5-c]isoquinolines [Compound 80]”: the λex (measurements run with methanol) is 499 nm. Besides, the “Quantum Yield” value under setting [1] worked out at 0.25. Further, the λem under setting [2] is recorded as 604 nm.

For `COC(=O)c1ccn2c(N)c(-c3ccc(-c4ccccc4)cc3)nc2c1` [Compound 10aj, methyl 2-([1,1′-biphenyl]-4-yl)-3-aminoimidazo[1,2-a]pyridine-7-carboxylate], the λex (measurements run with methanol) came to 403 nm. In addition, the “Quantum Yield” value under setting [1] is reported as 0.45. The same molecule displayed a λem under setting [2] of 517 nm.

`COc1cc(-c2nc3c(nc4ccccn43)c3cc(OC)c(OC)c(OC)c23)cc(OC)c1OC` [Compound 16c, 2,3,4-trimethoxy-5-(3,4,5-trimethoxyphenyl)pyrido[2′,1′:2,3]imidazo[4,5-c]isoquinoline] returned a λex (measurements run with methanol) of 367 nm. Besides, the “Quantum Yield” value under setting [1] is recorded as 0.01. Besides, the λem under setting [2] is recorded as 428 nm.
